Data from US20240059689A1, “PURINE DERIVATIVES AS ANTICANCER AGENTS” (Tango Therapeutics, Inc., priority 2021, published 2024).

Columns and labels:
MDA-MB-436 = assay: Viability assay, BRCA1 mutant cell line MDA-MB-436; type: cell-based; settings: Homo sapiens, MDA-MB-436, viability, BRCA1 mutant MDA-MB-436; read-out: MDA-MB-436 rel IC50
Excerpt: (§1) Table 1 also indicates IC50 values in a viability assay for a non-isogenic pair of BRCA1 mutant (column 5-MDA-MB-436) and BRCA1 WT (column 6—HCC1954) cell lines. These values indicate the effect of treatment with compound on cell survival.

HCC1954 = assay: Viability assay, BRCA1 WT cell line HCC1954; type: cell-based; settings: Homo sapiens, HCC1954, viability, read-out: HCC1954 rel IC50
Excerpt: as §1

monoubiquitinated PCNA = assay: AlphaLISA assay measuring monoubiquitinated PCNA in MDA-MB-436; type: cell-based; settings: Homo sapiens, MDA-MB-436, monoubiquitinated PCNA, read-out: Alpha Lisa IC50
Excerpt: Table 1 also indicates IC50 values for exemplary compounds in an AlphaLISA assay measuring monoubiquitinated PCNA in a BRCA1 mutant cell line (MDA-MB-436; column 7).

USP1-UAF1 = USP1-UAF1 (Homo sapiens, UniProt O94782); assay: Ubiquitin Rhodamine assay of USP1-UAF1 activity; type: biochemical
Method: Certain compounds of the disclosure were assessed for USP1-UAF1 activity in a Ubiquitin Rhodamine assay as described in Biology Example 1.

Chain of USP1-UAF1 (O94782 whole entry): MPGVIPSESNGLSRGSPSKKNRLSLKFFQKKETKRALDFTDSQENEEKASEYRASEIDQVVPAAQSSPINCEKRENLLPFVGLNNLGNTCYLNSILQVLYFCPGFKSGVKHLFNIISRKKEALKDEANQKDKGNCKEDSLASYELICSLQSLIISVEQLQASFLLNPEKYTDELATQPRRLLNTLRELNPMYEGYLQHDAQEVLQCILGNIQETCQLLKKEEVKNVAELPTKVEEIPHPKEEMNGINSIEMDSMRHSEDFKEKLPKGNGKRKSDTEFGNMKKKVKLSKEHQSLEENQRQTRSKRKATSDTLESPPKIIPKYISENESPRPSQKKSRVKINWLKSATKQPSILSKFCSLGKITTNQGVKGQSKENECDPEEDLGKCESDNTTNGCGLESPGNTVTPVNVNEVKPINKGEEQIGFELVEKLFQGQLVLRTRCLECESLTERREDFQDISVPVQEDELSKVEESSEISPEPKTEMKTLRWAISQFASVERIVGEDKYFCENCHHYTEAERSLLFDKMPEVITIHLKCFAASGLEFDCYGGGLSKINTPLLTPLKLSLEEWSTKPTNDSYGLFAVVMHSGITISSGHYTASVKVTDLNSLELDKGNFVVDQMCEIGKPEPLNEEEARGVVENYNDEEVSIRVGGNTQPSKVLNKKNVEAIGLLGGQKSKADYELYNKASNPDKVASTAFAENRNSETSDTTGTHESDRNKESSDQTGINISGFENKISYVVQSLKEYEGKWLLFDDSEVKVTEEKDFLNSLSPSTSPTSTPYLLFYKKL
Chain of USP1-UAF1 (Q8TAF3 whole entry partner): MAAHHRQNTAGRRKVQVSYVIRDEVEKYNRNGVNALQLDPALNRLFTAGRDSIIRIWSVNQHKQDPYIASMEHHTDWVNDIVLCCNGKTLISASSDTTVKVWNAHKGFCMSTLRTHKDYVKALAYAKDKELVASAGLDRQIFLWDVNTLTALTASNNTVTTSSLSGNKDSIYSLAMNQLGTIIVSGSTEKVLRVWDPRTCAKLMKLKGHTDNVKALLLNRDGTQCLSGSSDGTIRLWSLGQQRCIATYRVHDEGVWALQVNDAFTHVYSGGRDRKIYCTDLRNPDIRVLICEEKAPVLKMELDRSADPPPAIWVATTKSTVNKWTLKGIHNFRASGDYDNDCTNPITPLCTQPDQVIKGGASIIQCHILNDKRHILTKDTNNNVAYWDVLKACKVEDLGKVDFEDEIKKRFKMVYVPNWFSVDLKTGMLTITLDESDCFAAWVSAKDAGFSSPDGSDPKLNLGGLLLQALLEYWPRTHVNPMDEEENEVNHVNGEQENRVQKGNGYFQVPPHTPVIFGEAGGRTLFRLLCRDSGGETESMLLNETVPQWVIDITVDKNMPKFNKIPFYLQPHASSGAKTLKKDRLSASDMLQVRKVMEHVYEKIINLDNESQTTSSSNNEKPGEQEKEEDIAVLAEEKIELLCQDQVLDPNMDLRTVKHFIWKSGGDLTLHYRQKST

IC50 (MDA-MB-436)	IC50 (HCC1954)	IC50 (monoubiquitinated PCNA)	IC50 (USP1-UAF1)	Compound
100 to 250 nM	≥ 10000 nM	< 100 nM	30 to 100 nM	Cn1cc(C(F)(F)F)nc1-c1ccc(Cn2c(=N)n(C)c3cnc(-c4ccccc4OC(F)F)nc32)cc1 [Example T-021, 2-[2-(difluoromethoxy)phenyl]-7-methyl-9-[[4-[1-methyl-4-(trifluoromethyl)imidazol-2-yl]phenyl]methyl]purin-8-imine]
250 to 10000 nM	≥ 10000 nM	250 to 10000 nM	100 to 10000 nM	Cn1cc(C(F)(F)F)nc1-c1ccc(Cn2c(=N)n(C)c3cnc(-c4cccnc4N4CC(F)C4)nc32)cc1 [Example T-023]
250 to 10000 nM	250 to 10000 nM	250 to 10000 nM	30 to 100 nM	Cn1cc(C(F)(F)F)nc1-c1ccc(Cn2c(=N)n(C)c3cnc(-c4cccc(F)c4OC(F)F)nc32)cc1 [Example T-027, 2-[2-(difluoromethoxy)-3-fluoro-phenyl]-7-methyl-9-[[4-[1-methyl-4-(trifluoromethyl)imidazol-2-yl]phenyl]methyl]purin-8-imine]
100 to 250 nM	250 to 10000 nM	100 to 250 nM	100 to 10000 nM	COc1cc(-c2nc(C(F)(F)F)cn2C)ccc1Cn1c(=N)n(C)c2cnc(-c3ccccc3C(F)(F)F)nc21 [Example T-029]
< 100 nM	250 to 10000 nM	< 100 nM	100 to 10000 nM	CC(C)c1ccccc1-c1ncc2c(n1)n(C[C@H]1CC[C@H](c3nc(C(F)(F)F)cn3C)CC1)c(=N)n2C [Example T-030]
250 to 10000 nM	≥ 10000 nM	250 to 10000 nM	100 to 10000 nM	CC(C)n1cc(C(F)(F)F)nc1-c1ccc(Cn2c(=N)n(C)c3cnc(-c4cccnc4OCC(F)(F)F)nc32)cc1 [Example T-031]
< 100 nM	250 to 10000 nM	100 to 250 nM	< 30 nM	CCOc1cc(C(F)(F)F)nn1-c1ccc(Cn2c(=N)n(C)c3cnc(-c4ccccc4C(C)C)nc32)cc1 [Example T-032]
< 100 nM	250 to 10000 nM	< 100 nM	< 30 nM	Cn1cc(C(F)(F)F)nc1-c1ccc(Cn2c(=N)n(C)c3cnc(-c4ccccc4OC(F)(F)F)nc32)cc1 [Example T-033, 7-methyl-9-[[4-[1-methyl-4-(trifluoromethyl)imidazol-2-yl]phenyl]methyl]-2-[2-(trifluoromethoxy)phenyl]purin-8-imine]
250 to 10000 nM	≥ 10000 nM	250 to 10000 nM	100 to 10000 nM	CN(C)c1ncccc1-c1ncc2c(n1)n(Cc1ccc(-c3nc(C(F)(F)F)cn3C)cc1)c(=N)n2C [Example T-034]
250 to 10000 nM	≥ 10000 nM	250 to 10000 nM	100 to 10000 nM	CC(C)c1ccncc1-c1ncc2c(n1)n(Cc1ccc(-c3nc(C(F)(F)F)cn3C)cc1)c(=N)n2C [Example T-035]
< 100 nM	≥ 10000 nM	< 100 nM	< 30 nM	Cn1cc(C(F)(F)F)nc1-c1ccc(Cn2c(=N)n(C)c3cnc(-c4c(F)cccc4OC(F)F)nc32)cc1 [Example T-036, 2-[2-(difluoromethoxy)-6-fluoro-phenyl]-7-methyl-9-[[4-[1-methyl-4-(trifluoromethyl)imidazol-2-yl]phenyl]methyl]purin-8-imine]
250 to 10000 nM	≥ 10000 nM	250 to 10000 nM	100 to 10000 nM	COc1ncccc1-c1ncc2c(n1)n(Cc1ccc(-c3nc(C(F)(F)F)cn3C(C)C)cc1)c(=N)n2C [Example T-037]
100 to 250 nM	≥ 10000 nM	< 100 nM	30 to 100 nM	COc1ncnc(C(F)(F)F)c1-c1ncc2c(n1)n(Cc1ccc(-c3nc(C(F)(F)F)cn3C)cc1)c(=N)n2C [Example T-038, 2-[4-methoxy-6-(trifluoromethyl)pyrimidin-5-yl]-7-methyl-9-[[4-[1-methyl-4-(trifluoromethyl)imidazol-2-yl]phenyl]methyl]purin-8-imine]
250 to 10000 nM	≥ 10000 nM	250 to 10000 nM	30 to 100 nM	Cn1cc(C(F)(F)F)nc1-c1ccc(Cn2c(=N)n(C)c3cnc(-c4cc(F)ccc4OC(F)F)nc32)cc1 [Example T-039, 2-[2-(difluoromethoxy)-5-fluoro-phenyl]-7-methyl-9-[[4-[1-methyl-4-(trifluoromethyl)imidazol-2-yl]phenyl]methyl]purin-8-imine]
< 100 nM	≥ 10000 nM	< 100 nM	30 to 100 nM	Cc1cc(-c2nc(C(F)(F)F)cn2C)ccc1Cn1c(=N)n(C)c2cnc(-c3ccccc3C(C)C)nc21 [Example T-040]
250 to 10000 nM	≥ 10000 nM	100 to 250 nM	30 to 100 nM	COc1ncnc(C2CC2)c1-c1ncc2c(n1)n(Cc1cc(F)c(-c3nc(C(F)(F)F)cn3C)cc1F)c(=N)n2C [Example T-044]
250 to 10000 nM	≥ 10000 nM	100 to 250 nM	30 to 100 nM	CC(C)c1ccccc1-c1ncc2c(n1)n(Cc1ccc(-c3nc(C(F)(F)F)cn3C)cc1Cl)c(=N)n2C [Example T-047]

IC50 (MDA-MB-436)	IC50 (HCC1954)	IC50 (monoubiquitinated PCNA)	IC50 (USP1-UAF1)	Compound
100 to 250 nM	≥ 10000 nM	250 to 10000 nM	30 to 100 nM	Cn1cc(C(F)(F)F)nc1-c1ccc(Cn2c(=N)n(CC(F)F)c3cnc(-c4ccccc4C(F)(F)F)nc32)cc1 [Example T-049]
250 to 10000 nM	≥ 10000 nM	250 to 10000 nM	100 to 10000 nM	CC(C)n1cc(C(F)(F)F)nc1-c1ccc(Cn2c(=N)n(C)c3cnc(-c4cccnc4OC(F)F)nc32)cc1 [Example T-051, 2-[2-(difluoromethoxy)-3-pyridyl]-9-[[4-[1-isopropyl-4-(trifluoromethyl)imidazol-2-yl]phenyl]methyl]-7-methyl-purin-8-imine]
100 to 250 nM	250 to 10000 nM	100 to 250 nM	30 to 100 nM	COc1nsc(OC)c1-c1ncc2c(n1)n(Cc1ccc(-c3nc(C(F)(F)F)cn3C)cc1)c(=N)n2C [Example T-052]
< 100 nM	≥ 10000 nM	100 to 250 nM	< 30 nM	Cn1cc(C(F)(F)F)nc1-c1ccc(Cn2c(=N)n(C)c3cnc(-c4cccnc4OC(F)(F)F)nc32)cc1 [Example T-053, 7-methyl-9-[[4-[I-methyl-4-(trifluoromethyl)imidazol-2-yl]phenyl]methyl]-2-[2-(trifluoromethoxy)-3-pyridyl]purin-8-imine]
< 100 nM	≥ 10000 nM	< 100 nM	30 to 100 nM	CC(C)c1ccccc1-c1ncc2c(n1)n(Cc1ccc(-c3nc(C(F)(F)F)cn3C)cc1)c(=N)n2CC(F)(F)F [Example T-054]
250 to 10000 nM	≥ 10000 nM	250 to 10000 nM	100 to 10000 nM	CCn1cc(C(F)(F)F)nc1-c1ccc(Cn2c(=N)n(C)c3cnc(-c4cccnc4OC)nc32)cc1 [Example T-057]
< 100 nM	250 to 10000 nM	< 100 nM	< 30 nM	CC(C)c1ccccc1-c1ncc2c(n1)n(Cc1ccc(-c3nc(C(F)(F)F)c(Br)n3C)cc1)c(=N)n2C [Example T-059]
≥ 10000 nM	≥ 10000 nM	250 to 10000 nM	100 to 10000 nM	COc1ncccc1-c1ncc2c(n1)n(Cc1ccc(-c3nc(C(F)(F)F)cn3CC(F)F)cc1)c(=N)n2C [Example T-060]
100 to 250 nM	250 to 10000 nM	100 to 250 nM	< 30 nM	COn1cc(C(F)(F)F)nc1-c1ccc(Cn2c(=N)n(C)c3cnc(-c4ccccc4C(C)C)nc32)cc1 [Example T-061]
100 to 250 nM	≥ 10000 nM	100 to 250 nM	30 to 100 nM	CCn1cc(C(F)(F)F)nc1-c1ccc(Cn2c(=N)n(C)c3cnc(-c4ccccc4C(F)(F)F)nc32)cc1 [Example T-063, 9-(4-(1-ethyl-4-(trifluoromethyl)-1H-imidazol-2-yl)benzyl)-7-methyl-2-(2-(trifluoromethyl)phenyl)-7H-purin-8(9H)-imine]
250 to 10000 nM	≥ 10000 nM	250 to 10000 nM	100 to 10000 nM	Cn1cc(C(F)(F)F)nc1-c1ccc(Cn2c(=N)n(C)c3cnc(-c4cccnc4OCC(C)(C)C)nc32)cc1 [Example T-064]
100 to 250 nM	≥ 10000 nM	100 to 250 nM	30 to 100 nM	COc1nccc(F)c1-c1ncc2c(n1)n(Cc1ccc(-c3nc(C(F)(F)F)cn3C)cc1)c(=N)n2C [Example T-065]
250 to 10000 nM	≥ 10000 nM	250 to 10000 nM	100 to 10000 nM	COCCn1cc(C(F)(F)F)nc1-c1ccc(Cn2c(=N)n(C)c3cnc(-c4ccccc4C(F)(F)F)nc32)cc1 [Example T-066]
250 to 10000 nM	≥ 10000 nM	250 to 10000 nM	30 to 100 nM	Cn1cc(C(F)(F)F)nc1-c1ccc(Cn2c(=N)n(C)c3cnc(-c4c(Cl)cnn4C)nc32)cc1 [Example T-067]
100 to 250 nM	≥ 10000 nM	100 to 250 nM	30 to 100 nM	COc1ncnc(C2CC2)c1-c1ncc2c(n1)n(Cc1ccc(-c3nc(C(F)(F)F)cn3CC(F)F)cc1)c(=N)n2C [Example T-069]
250 to 10000 nM	250 to 10000 nM	250 to 10000 nM	30 to 100 nM	Cc1ccc(-c2ncc3c(n2)n(Cc2ccc(-c4nc(C(F)(F)F)cn4C)cc2)c(=N)n3C)c(C(C)C)c1 [Example T-070, 2-(2-isopropyl-4-methyl-phenyl)-7-methyl-9-[[4-[1-methyl-4-(trifluoromethyl)imidazol-2-yl]phenyl]methyl]purin-8-imine]
